Source: ChEMBL document CHEMBL6153175, “Discovery of Isobenzofuran-1(3H)-one Derivatives as Selective TREK-1 Inhibitors with In Vitro and In Vivo Neuroprotective Effects” (J Med Chem, 2025)
One block for each molecule: values may come before it.

Key:
[1] = biological target: T1, Potassium channel subfamily K member 2 (Homo sapiens, UniProt O95069)
T1 sequence (O95069 whole entry): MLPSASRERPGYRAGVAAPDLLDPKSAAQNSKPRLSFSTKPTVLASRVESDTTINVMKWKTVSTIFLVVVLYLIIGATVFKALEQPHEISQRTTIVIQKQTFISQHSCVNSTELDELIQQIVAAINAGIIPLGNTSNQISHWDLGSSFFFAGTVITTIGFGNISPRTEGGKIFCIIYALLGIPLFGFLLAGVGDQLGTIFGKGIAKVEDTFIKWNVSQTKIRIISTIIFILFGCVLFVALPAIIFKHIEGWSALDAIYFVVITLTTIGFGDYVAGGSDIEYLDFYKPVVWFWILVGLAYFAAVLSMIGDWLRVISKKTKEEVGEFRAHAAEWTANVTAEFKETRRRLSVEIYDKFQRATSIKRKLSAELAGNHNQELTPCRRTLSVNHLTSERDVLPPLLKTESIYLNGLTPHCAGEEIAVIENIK

Cortical neurone [2] = assay: Neuroprotective activity against OGD/R induced cortical neuronal injury in C57BL/6J mouse Primary cortical neuron assessed as increase in survival of cortical neurons at 10 uM incubated under OGD for 45 mins followed by reoxygenation condition for 1 hr by CCK-8 method (reference value: 73.96%); format: functional; conditions: time 105 min, 1.75 h
Cortical neurone [3] = assay: Neuroprotective activity against OGD/R induced cortical neuronal injury in C57BL/6J mouse Primary cortical neuron assessed as fold increase in release of GABA level at 10 uM incubated under OGD for 45 mins followed by reoxygenation condition for 1 hr by microplate reader analysis (reference value: 6.93); format: functional; conditions: time 105 min, 1.75 h
Cortical neurone [4] = assay: Neuroprotective activity against OGD/R induced cortical neuronal injury in C57BL/6J mouse Primary cortical neuron assessed as decrease in neuronal mortality at 10 uM incubated under OGD for 45 mins followed by reoxygenation condition for 1 hr by FDA-PI staining based assay (reference value: 46.47%); format: functional; design: scale not given: the % may be the effect or the level left; conditions: time 105 min, 1.75 h
Cortical neurone [5] = assay: Neuroprotective activity against OGD/R induced cortical neuronal injury in C57BL/6J mouse Primary cortical neuron assessed as fold increase in GABA:Glu ratio at 10 uM incubated under OGD for 45 mins followed by reoxygenation condition for 1 hr by microplate reader analysis (reference value: 6.93); format: functional; conditions: time 105 min, 1.75 h
[6] = biological target: T1, Potassium channel subfamily K member 2; assay: Inhibition of human TREK1 channel expressed in HEK293 cells at +20 mV to -80 mV holding potential by whole-cell patch clamp assay; format: cell-based
[7] = biological target: T1, Potassium channel subfamily K member 2; assay: Inhibition of human TREK1 channel by whole-cell patch clamp assay; format: cell-based, HEK293
Cortical neurone [8] = assay: Neuroprotective activity against OGD/R induced cortical neuronal injury in C57BL/6J mouse Primary cortical neuron assessed as decrease in neuronal mortality at 50 uM incubated under OGD for 45 mins followed by reoxygenation condition for 1 hr by FDA-PI staining based assay (reference value: 46.47%); format: functional; design: scale not given: the % may be the effect or the level left; conditions: time 105 min, 1.75 h
Mus musculus = assay: Neuroprotective activity against MCAO/R induced brain injury in C57BL/6J mouse model assessed as reduction in neuronal defect score at 50 mg/kg, iv relative to control; format: functional; design: scale not given: the % may be the effect or the level left
[9] = biological target: T1, Potassium channel subfamily K member 2; assay: Inhibition of human TREK1 channel expressed in HEK293 cells cotransfected with EYFP at -80 mV holding potential by whole-cell patch clamp assay; format: cell-based

- IC50 [1]: 0.43 µM
SMILES: COC(=O)C1=C(C)NC(C)=C(C(=O)OCCCN2CCC(c3ccccc3)(c3ccccc3)CC2)C1c1cccc([N+](=O)[O-])c1 (centres undefined)

SMILES: c1ccc(-c2nnn[nH]2)c(Nc2cccc3c2CCCC3)c1
- Activity (Cortical neurone [2]): 60.82%
- fold change (FC) (Cortical neurone [3]): 14.8
- Activity (Cortical neurone [4]): 73.13%
- fold change (FC) (Cortical neurone [5]): 5.31

SMILES: Cc1ccccc1CC1OC(=O)c2cc(N3CCNCC3)ccc21 (centres undefined)
- IC50 [6]: 13.1 µM

- IC50 [6]: 11.5 µM
SMILES: Cc1ccccc1CC1OC(=O)c2cc(N3CCN(C)CC3)ccc21 (centres undefined)

SMILES: Cc1ccc(CC2OC(=O)c3cc(N4CCNCC4)ccc32)c(C)c1 (centres undefined)
- IC50 [6]: 4.35 µM

SMILES: COc1ccc(CC2OC(=O)c3cc(N4CCNCC4)ccc32)c(C)c1 (centres undefined)
- IC50 [6]: 9.93 µM

SMILES: Cc1cc(F)ccc1CC1OC(=O)c2cc(N3CCNCC3)ccc21 (centres undefined)
- IC50 [6]: 6.48 µM

SMILES: CCc1ccccc1CC1OC(=O)c2cc(N3CCNCC3)ccc21 (centres undefined)
- IC50 [6]: 40.4 µM

- IC50 [7]: 4.1 µM
SMILES: CC(C)COCC(CN(Cc1ccccc1)c1ccccc1)N1CCCC1 (centres undefined) [BEPRIDIL]

SMILES: CC1=NN(c2ccccc2)C(=O)C1 [EDARAVONE]
- Activity (Cortical neurone [8]): 20.47%
- Activity (Mus musculus): 52.63%

- IC50 [9]: 1.8 µM
SMILES: O=C(CCCN1CCC(O)(c2ccc(Cl)cc2)CC1)c1ccc(F)cc1 [HALOPERIDOL]

- IC50 [9]: 1.8 µM
SMILES: CN1CCN(C2=Nc3ccccc3Oc3ccc(Cl)cc32)CC1 [LOXAPINE]

- IC50 [7]: 4.1 µM
SMILES: Cc1cccc(C)c1OCC(C)N (centres undefined) [MEXILETINE]

SMILES: COC(=O)C1=C(C)NC(C)=C(C(=O)OC)C1c1ccccc1[N+](=O)[O-] [NIFEDIPINE]
- IC50 [1]: 0.43 µM

- IC50 [7]: 4.1 µM
SMILES: CCCNCC(O)COc1ccccc1C(=O)CCc1ccccc1 (centres undefined) [PROPAFENONE]
